Measured values taken from article PMC3724985, “Isolation, biochemical characterization, and cloning of a bacteriocin from the poultry-associated Staphylococcus aureus strain CH-91” (Applied Microbiology and Biotechnology, 2012).
Converted amounts (≈) assume the structure as drawn.

Columns and labels:
StpC = assay: Influence of StpC on biosynthesis and stability of BacCH91 in S. aureus CH-91 culture (E-64, HPLC); conditions: S. aureus CH-91 in TSB with or without E-64 (0.01, 0.1, 1.0 mM); samples at 5, 10, 24 h; HPLC peak area at 220 nm
Description: S. aureus CH-91 was cultured at 37 °C in TSB supplemented with the cysteine peptidase inhibitor E-64 (1-[N-[(L-3-trans-carboxyoxirane-2-carbonyl)-L-leucyl] amino]-4-guanidinobutane; Sigma) at final concentrations of 1.0, 0.1, and 0.01 mM. Aliquots were removed at 5, 10, and 24 h, and the bacteria-free supernatants were obtained by centrifugation.
To estimate the level of BacCH91, the collected supernatants were acidified with TFA (1 % final concentration, v/v) and filtered (0.45 μm filter). Aliquots (30 μl) were analyzed using HPLC (Kromasil C4 column, 250 × 4.6 mm; Supelco) and the same buffers as those used during the purification procedure. The column was flushed for 5 min following injection at a constant concentration of 34 % B. A linear gradient from 34 to 100 % B was then applied over 10 min at 1 ml/min. Under these conditions, BacCH91 was detected at 220 nm as a single peak eluting with a retention time of 14.6 min. The relative amount of bacteriocin was calculated as the area under the peak.

proteinase K = target: T1, proteinase K (Parengyodontium album, UniProt P06873); assay: Susceptibility to proteolysis, proteinase K; assay type: in vitro ADME; conditions: 30 μM, enzyme/bacteriocin 1:20 by weight, 1 h at 37 °C; radial diffusion assay and HPLC
T1 construct: purchased A&A Biotechnology
T1 sequence (P06873 106-384): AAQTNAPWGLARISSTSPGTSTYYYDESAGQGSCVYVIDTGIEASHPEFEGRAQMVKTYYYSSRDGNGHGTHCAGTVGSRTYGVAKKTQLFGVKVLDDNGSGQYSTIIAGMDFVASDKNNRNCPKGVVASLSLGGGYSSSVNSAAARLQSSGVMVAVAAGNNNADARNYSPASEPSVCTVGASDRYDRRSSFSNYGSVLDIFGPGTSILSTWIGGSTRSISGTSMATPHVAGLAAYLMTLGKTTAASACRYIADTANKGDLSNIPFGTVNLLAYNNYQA
Description: All of the above experiments were performed in triplicate. The final results are presented as means ± SD.

[1] = system: Micrococcus luteus DSMZ 20030; assay: MIC, micro-dilution method; assay type: cell-based; conditions: M. luteus DSMZ 20030, as printed in the text, CLSI M7-A7, cation-adjusted MHB
Text: (§1) S. aureus CH-91 was kindly provided by S. Takeuchi from Fukui Prefectural University, Japan (Takeuchi et al. [1999]). The strain has been deposited in the DSMZ collection under the number DSM 26258. Bacillus licheniformis NCTC 7224, Bacillus subtilis ATCC 6633, Lactococcus lactis subsp. lactis LOCK 0869, Micrococcus luteus strains DSMZ 20030 and CBM (clinical isolate), Sarcina lutea ATCC 9341, S. aureus strains ATCC 25923, M-122 (Polakowska et al. [2012]), Newman and RN4220, S. epidermidis ATCC 35347, Staphylococcus intermedius ATCC 29666, Staphylococcus pseudintermedius LMG 22219 (Devriese et al. [2005]), Staphylococcus saprophyticus ATCC 49453, Staphylococcus xylosus strains isolated from the skin of healthy chickens, Streptococcus mutans ATCC 25175, Streptococcus pneumoniae ATCC 49619, Escherichia coli K12 ATCC 10798, Klebsiella pneumoniae, Serratia marcescens, and Sphingomonas sp. AMC 3962 (Dziga et al. [2012]) were obtained from the collections of The Faculty of Biochemistry, Biophysics and Biotechnology, Jagiellonian University, Krakow, Poland. […]
(§2) The bactericidal activity of BacCH91 was determined using the micro-dilution method in compliance with Clinical and Laboratory Standards Institute guidelines M7-A7 (CLSI [2006]). […] After overnight incubation at 37 °C, the optical density (OD) at 600 nm was measured. […]

Micrococcus luteus CBM = assay: MIC, micro-dilution method; assay type: cell-based; conditions: M. luteus CBM, CLSI M7-A7, cation-adjusted MHB
Text: as §1, §2

Serratia marcescens = assay type: cell-based
Text: (§3) S. aureus CH-91 was kindly provided by S. Takeuchi from Fukui Prefectural University, Japan (Takeuchi et al. [1999]). The strain has been deposited in the DSMZ collection under the number DSM 26258. Bacillus licheniformis NCTC 7224, Bacillus subtilis ATCC 6633, Lactococcus lactis subsp. lactis LOCK 0869, Micrococcus luteus strains DSMZ 20030 and CBM (clinical isolate), Sarcina lutea ATCC 9341, S. aureus strains ATCC 25923, M-122 (Polakowska et al. [2012]), Newman and RN4220, S. epidermidis ATCC 35347, Staphylococcus intermedius ATCC 29666, Staphylococcus pseudintermedius LMG 22219 (Devriese et al. [2005]), Staphylococcus saprophyticus ATCC 49453, Staphylococcus xylosus strains isolated from the skin of healthy chickens, Streptococcus mutans ATCC 25175, Streptococcus pneumoniae ATCC 49619, Escherichia coli K12 ATCC 10798, Klebsiella pneumoniae, Serratia marcescens, and Sphingomonas sp. AMC 3962 (Dziga et al. [2012]) were obtained from the collections of The Faculty of Biochemistry, Biophysics and Biotechnology, Jagiellonian University, Krakow, Poland. A list of strains used for assessment of the general occurrence of the bacteriocin gene is provided in the Electronic supplementary materials (ESM; Table S1). Gram-positive and Gram-negative bacteria were maintained at 37 °C in tryptic soy broth (TSB) and Luria-Bertani broth (both obtained from Sigma), respectively.
(§4) The bactericidal activity of BacCH91 was determined using the micro-dilution method in compliance with Clinical and Laboratory Standards Institute guidelines M7-A7 (CLSI [2006]). Briefly, the bacteria were either cultivated in cation-adjusted MHB to the early exponential phase or grown overnight on agar-solidified MHB supplemented with 2.5 % LHB in the case of Streptococcus spp. and L. lactis. Subsequently, the bacteria were diluted to 1 × 10^6 CFU/ml either in MHB or in MHB supplemented with 5 % LHB, in the case of the latter bacteria. Fifty-microliter portions of bacterial suspension were mixed with an equal volume of MHB containing serial twofold dilutions of bacteriocin. After overnight incubation at 37 °C, the optical density (OD) at 600 nm was measured. The MIC was defined as the minimum bacteriocin concentration for which the increase in OD was not observed compared to uninoculated broth.

[2] = system: Staphylococcus epidermidis ATCC 35347; assay type: cell-based
Text: as §3, §4

[3] = system: Staphylococcus aureus RN4220; assay type: cell-based; conditions: Staphylococcus aureus RN4220, bacteriocin gene positive strain; micro-dilution, CLSI M7-A7, cation-adjusted MHB, overnight 37 °C, OD 600 nm
Text: as §3, §4

[4] = system: Bacillus licheniformis NCTC 7224; assay type: cell-based
Text: as §3, §4

Sarcina lutea ATCC 9341 = assay type: cell-based
Text: as §3, §4

Klebsiella pneumoniae = assay type: cell-based
Text: as §3, §4

[5] = system: Staphylococcus aureus CH91; assay type: cell-based
Text: as §3, §4

[6] = system: Staphylococcus saprophiticus ATCC 49453; assay type: cell-based
Text: as §3, §4

[7] = system: Staphylococcus xylosus kw 2,5; assay type: cell-based
Text: as §3, §4

[8] = system: Pseudomonas aeruginosa ATCC 27853; assay type: cell-based
staphylococcal strains = assay type: cell-based, Staphylococcus spp.
Text: as §1, §2

[9] = assay type: physicochemical; conditions: 30 μM, radial diffusion assay, S. lutea
Description: To test the pH stability of BacCH91, a water solution of the bacteriocin (final concentration, 30 μM) was evaporated in a vacuum centrifuge and re-dissolved in (a) 100 mM sodium citrate pH 3.0, 4.0, 5.0, and 6.0; […] The solutions were incubated for 3 h at RT, and the residual activity of the bacteriocin was determined using the radial diffusion assay. The temperature stability of BacCH91 (30 μM final concentration) was determined in 50 mM Tris–HCl pH 7.4, 0.15 M NaCl and 50 mM bis-Tris pH 6.4, 0.15 M NaCl. The solutions were incubated for 1, 6, and 24 h at 37, 60, 80, and 99 °C. […] All of the above experiments were performed in triplicate. The final results are presented as means ± SD.

C/C=C(\NC(=O)[C@H](CCCCN)NC(=O)CNC(=O)[C@@H]1CS[C@@H](C)[C@@H](NC(=O)[C@@H]2CSC[C@@H](NC(=O)/C(=C/C)NC(=O)[C@@H](N)[C@@H](C)CC)C(=O)N[C@@H](Cc3ccccc3)C(=O)N[C@@H]([C@@H](C)CC)C(=O)NCC(=O)N2)C(=O)N2CCC[C@H]2C(=O)NCC(=O)N1)C(=O)NCC(=O)N[C@@H]1CSC[C@@H]2NC(=O)[C@H](Cc3ccccc3)NC(=O)[C@@H](CS/C=C\NC2=O)NC(=O)[C@H](CC(N)=O)NC(=O)[C@H](Cc2ccccc2)NC1=O [BacCH91]
effect of StpC on the stability of the lantibiotic in culture (StpC): does not affect the stability | effect of proteinase K on BacCH91 (proteinase K): unaffected | MIC [1]: 0.0025 µM (≈ 0.00519 µg/mL) | MIC (Micrococcus luteus CBM): 0.04 µM (≈ 0.0831 µg/mL) | MIC (Serratia marcescens): >100 µM | MIC [2]: 1.6 µM (≈ 3.32 µg/mL) | MIC [3]: 6.0 µM (≈ 12.5 µg/mL) | MIC [4]: 1.8 µM (≈ 3.74 µg/mL) | MIC (Sarcina lutea ATCC 9341): 0.31 µM (≈ 0.644 µg/mL) | MIC (Klebsiella pneumoniae): >100 µM | MIC [5]: 1.3 µM (≈ 2.7 µg/mL) | MIC [6]: 3.0 µM (≈ 6.23 µg/mL) | MIC [7]: 1.5 to 2.0 µM | MIC [8]: >100 µM | MIC (staphylococcal strains): 1.3 to 6.0 µM | residual activity after 1 h at temperatures up to 80 °C ([9]; 50 mM Tris–HCl pH 7.4, 0.15 M NaCl and 50 mM bis-Tris pH 6.4, 0.15 M NaCl, 37, 60, 80 °C, 1 h, triplicate): maintained its activity | residual activity after several hours at temperatures higher than 60 °C ([9]; pH 6.4 and pH 7.4 buffers with 0.15 M NaCl, 6 and 24 h time points, triplicate): complete inactivation | activity retained during incubation for 1 h at 80 °C ([9]; pH 6.4 and pH 7.4 buffers with 0.15 M NaCl, 80 °C, 1 h): ~100% | residual activity after short incubation at 99 °C ([9]; pH 6.4 and pH 7.4 buffers with 0.15 M NaCl, 99 °C, triplicate): complete inactivation
